Legend:
[1] = tested on: high fat diet-induced obese mice; assay: GABA-T inhibitors (8 mg/day IP) in HFD-induced obese mice: body weight, serum insulin/glucose/glucagon, OGTT, ITT; assay type: in vivo, mouse
Experimental: (§1) All animal studies were conducted using male wildtype C57BL/6J mice purchased from Jackson Laboratories or bred in-house (Bar Harbor, Me.). Mice were kept on a 14-hour light/10-hour dark schedule and housed 3-5 mice per cage until 1 week prior to study initiation, at which point animals were individually housed. Studies were conducted in lean chow fed mice (7013 NIH-31, Teklad WI, 3.1 kcal/g, 18% kcal from fat, 59% kcal from carbohydrate, 23% kcal from protein) at 12-16 weeks of age. Studies in diet-induced obese mice dosed intraperitoneally with GABA transaminase inhibitors, mice treated with ethanolamine-O-sulfate in their drinking water, and mice treated with GABA-T targeted or scramble control antisense oligonucleotides (ASO) were performed after 8-10 weeks on a high fat diet (TD 06414, Teklad WI, 5.1 kcal/g, 60.3% kcal from fat, 21.3% kcal from carbohydrate, 18.4% kcal from protein; 20-26 weeks of age). For ASO studies, mice were stratified by body weight and assigned to an injection treatment (control or GABA-T). Studies in obese vagotomy and sham mice were performed after 9 weeks of high fat diet feeding. Unless fasted, mice had ad libitum access to food and water. All studies were approved by The University of Arizona Institutional Animal Care and Use Committee.
(§2) Wildtype lean and obese mice were randomly divided into treatment groups and dosed daily with 8 mg of ethanolamine-O-sulfate (EOS; Sigma-Aldrich, St. Louis, Mo.), vigabatrin (United States Pharmacopeia, Rockville, Md.) or PBS. Obese sham and vagotomy mice were dosed daily with 8 mg of EOS. In all cases, basal bleeds were taken prior to initiation of an ITT. Lean mice received treatment by oral gavage (0.3 mL/mouse) while obese mice were treated by intraperitoneal injection (0.3 mL/mouse). Pre-treatment studies were conducted in the week immediately prior to beginning drug administration. Daily doses took place at 9 am each day and oral glucose tolerance tests (OGTT) and insulin tolerance tests (ITT) were performed on the third and fourth days of treatment in lean mice, respectively. In wildtype obese mice, OGTT and ITT were performed on the fourth day of treatment in separate cohorts. On the fifth day of treatment, 2DG clearance studies were performed. In sham/vagotomy mice, OGTT and ITT were performed on the fourth and fifth day of treatment, respectively. After a 2-week washout period without treatment injection, a basal bleed and bleed 15 minutes after an oral glucose gavage ([…]) to determine oral glucose stimulated insulin secretion were performed.
(§3) Oral glucose (2.5 g/kg; 0.1 mL/10 g body weight; Chem-Impex Int'l Inc., Wood Dale, Ill.) was given to 4 hour fasted individually housed mice. All glucose tolerance tests began at […] and glucose was measured in whole blood, collected from the tail vein, by glucometer (Manufacture #D2ASCCONKIT, Bayer, Leverkusen, Germany) at 0, 15, 30, 60, 90, and 120 minutes after glucose gavage. Blood for serum insulin (oral glucose stimulated insulin secretion; OGSIS) and glucose determination was collected from the tail vein 15 minutes following glucose administration.
(§4) Intraperitoneal insulin (0.5 U/kg; 0.1 mL/10 g body weight; Sigma Aldrich, St. Louis, Mo.) was given to 4 hour fasted individually housed mice. All insulin tolerance tests began at […] and glucose was measured in whole blood, collected from the tail vein, by glucometer (Manufacture #D2ASCCONKIT, Bayer, Leverkusen, Germany) at 0, 30, 60, 90, and 120 minutes after insulin injection.
(§5) Within 2 hours of collection, blood was left to clot at room temperature for 20 minutes. Thereafter, the blood was centrifuged at 3,000×g for 30 minutes at 4° C. and serum was collected. Serum was stored at −80° C. until metabolite and hormone analyses. A colorimetric assay was used to analyze serum glucose (Cat. #G7519, Pointe Scientific Inc., Canton Mich.). Serum insulin was analyzed by enzyme-linked immunosorbent assay (ELISA; Cat. #80-INSMSU-E01,E10, Alpco, Salem, N.H.). […]

[2] = tested on: diet-induced obese mice; assay: EOS in drinking water (3 g/L) in obese mice: glucose homeostasis, body mass; assay type: in vivo, mouse
Experimental: In a separate set of studies, an ITT was performed in obese mice to establish insulin resistance. Subsequently, EOS was provided ad libitum in the water (3 g/L) for 4 days. An OGTT and ITT were performed on days 3 and 4 of treatment, respectively. The water was then removed, and an ITT was performed 2 weeks later to establish the timing of restoration of insulin resistance after drug removal.
as §3, §4

[3] = tested on: lean mice; assay: GABA-T inhibitors (8 mg/day oral gavage) in lean mice: glucose homeostasis; assay type: in vivo, mouse
Experimental: as §1, §2, §3, §4, §5

[4] = tested on: obese hepatic vagotomized and sham operated mice; assay: EOS (8 mg/day) in HFD-induced obese sham operated and hepatic vagotomized mice; assay type: in vivo, mouse
Experimental: Surgeries were performed in 12-week old male C57BL/6J mice under isoflurane anesthesia. Mice were randomly assigned to a surgical group (sham or vagotomy). A ventral midline incision through the skin and peritoneum allowed us to isolate the hepatic vagus nerve as it branched from the esophagus. In vagotomized mice, the hepatic vagal nerve was severed, while it remained intact in sham operated mice. The peritoneum was sutured with absorbable polyglactin 910 suture and the skin with nylon suture. Mice were given a single post-operative dose of slow release formulated buprenorphine analgesic (1.2 mg/kg slow release, sub-cutaneous). Food intake and body weight were monitored daily and sutures were removed 7 days post-operation.
as §2, §3, §4

[5] = target: T1, GABA-T (Mus musculus, UniProt P61922); assay: liver slice GABA export with GABA-T inhibitor ex vivo; assay type: cell-based; conditions: 5.3 mM
T1 construct: from tissue; host or cells: liver slices of lean, obese and obese Kir2.1-expressing mice
Source text: Two liver slices were taken from each mouse.

[6] = 8 mg/day IP, four days, relative to pre-treatment

T1 sequence (P61922 29-500): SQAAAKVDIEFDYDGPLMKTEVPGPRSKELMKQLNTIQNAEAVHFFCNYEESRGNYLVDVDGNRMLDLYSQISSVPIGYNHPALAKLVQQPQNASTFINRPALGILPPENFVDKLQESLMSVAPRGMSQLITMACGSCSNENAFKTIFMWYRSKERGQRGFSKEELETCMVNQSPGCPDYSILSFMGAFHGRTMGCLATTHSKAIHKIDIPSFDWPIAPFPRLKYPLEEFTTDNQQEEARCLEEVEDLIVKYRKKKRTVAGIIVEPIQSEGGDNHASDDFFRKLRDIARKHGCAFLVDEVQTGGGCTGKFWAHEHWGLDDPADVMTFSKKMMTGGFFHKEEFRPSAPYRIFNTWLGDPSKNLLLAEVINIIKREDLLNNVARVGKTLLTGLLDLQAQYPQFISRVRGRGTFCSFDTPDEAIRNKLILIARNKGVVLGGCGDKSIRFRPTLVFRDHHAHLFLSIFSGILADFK

NCCOS(=O)(=O)O [EOS, ethanolamine-O-sulfate]
glucose:insulin ratio [1, 6]: increased | serum glucose [1, 6]: decreased | serum insulin [1, 6]: decreased | body weight ([1]; 8 mg/day IP, through 5 days, vs saline injected mice): remained similar | serum glucagon ([1]; 5 days, relative to control mice): decreased | glucose stimulated serum insulin ([1]; treatment day 4, relative to pre-treatment): tended to be decreased | glucose stimulated serum insulin after washout ([1]; two-weeks washout): markedly increased | serum insulin and glucose:insulin ratio after washout ([1]; two-weeks washout): return of serum insulin and the glucose:insulin ratio to pre-treatment levels | insulin sensitivity assessed by insulin tolerance test (ITT) ([1]; within 4 days of initiating treatment): improved | response after withdrawal ([2]; 2 weeks without EOS in the drinking water): washed out | body mass ([2]; diet-induced obese mice, 3 g/L in drinking water, 7 weeks): dramatically decreased | measures of glucose homeostasis ([2]; obese mice, 3 g/L in drinking water, 4 days): similarly improved | serum glucose [3]: decreased | glucose tolerance ([3]; 8 mg/day): no effect | insulin sensitivity ([3]; 8 mg/day): no effect | serum insulin concentrations ([3]; 8 mg/day): no effect | glucose homeostasis ([3]; acute): does not alter | responses to EOS in vagotomized mice ([4]; hepatic vagotomized obese mice): eliminated most of the responses | serum glucose ([4]; hepatic vagotomized obese mice): decrease | glucose stimulated serum insulin ([4]; sham operated obese mice): diminished | glucose:insulin ratio ([4]; sham operated obese mice): elevated | insulin sensitivity by insulin tolerance test ([4]; sham operated obese mice): tended to improve | oral glucose tolerance ([4]; sham operated obese mice): improved | serum glucose ([4]; sham operated obese mice): decreased | serum insulin ([4]; sham operated obese mice): decreased | all parameters after washout ([4]; sham operated obese mice, 2-week washout): restored all parameters to pre-treatment measures | body weight between surgical groups ([4]; sham vs vagotomized, during EOS treatment): did not differ | GABA export ([5]; obese Kir2.1 expressing liver slices): decreased | GABA export ([5]; obese control liver slices): decreased

From patent US20230128194A1, “METHODS AND COMPOSITIONS TO ALTER HEPATIC GABA RELEASE TO TREAT OBESITY-RELATED CONDITIONS” (ARIZONA BOARD OF REGENTS ON BEHALF OF THE UNIVERSITY OF …, priority 2017, published 2023)
